# Data published in patent US20050176813A1, “Novel chalcone derivatives and uses thereof” (priority 2002, published 2005).
# pEC50, pKd: −log10 of the molar value. Like-named read-outs stand apart in the source and are kept apart here.
# How the values were obtained:
# [1] = target: Kv1.3 (Homo sapiens, UniProt P22001); assay: Kv1.3 channel block, estimated Kd (Table 1); type: binding; details: for Block phasic or not: Kv1.3
# [2] = tested on: human peripheral blood lymphocytes; assay: Proliferation test, [3H]-thymidine incorporation assay, anti-CD3 stimulated; type: cell-based; details: Homo sapiens, Lymphocyte; anti-CD3 stimulation, 48 h; read-out: EC50, suppression of proliferation of human peripheral blood lymphocytes
# Method: Proliferation Test [^3H]-Thymidine Incorporation Assay
# Resting peripheral blood mononuclear cells from healthy volunteers were seeded at 2×10^5 cells per well in medium (RPMI 1640 supplemented 10% fetal calf serum, 2 mM glutamine, 1 mM sodium pyruvate, 1% nonessential amino acids, 100 units/ml penicillin, 100 μg/ml streptomycin and 50 μM β-mercaptoethanol) in flat-bottom 96 well plates (final volume 200 μl). Cells pre-incubated with drug (60 min), were stimulated with 5 ng/ml anti-CD3 Ab) for 48 h. [^3H]-Thymidine (1 μCi per well) was added for the last 6 h. Cells were harvested onto glass fibre filters and radioactivity measured in a scintillation counter. All experiments were done in triplicate. Results are reported as normalised for maximum [^3H]-thymidine incorporation for controls.
# [3] = Cytotoxicity in vitro (remark in Table 1, summary of Table 2); type: cell-based; details: cells not given
# Method: Jurkat E6-1 and MEL were seeded at 5×10^5 cells/ml in twelve-well plates. Drug (100 nM, 1 μM, 2.5 μM and 10 μM) was added in a final DMSO concentration of 0.1%. After 48 h of incubation, cells were harvested by sucking them off the plates. Cells were centrifuged, resuspended in 0.5 ml PBS containing 1 μg/ml propidium iodide (PI), and red fluorescence measured on a FACScan flow cytometer (Becton Dickinson) after 20 min (10^4 cells of every sample being analyzed). The percentage of dead cells was determined by their PI uptake. Incubation with 20% DMSO served as a control for setting the gates of the flow cytometer for dead cells.
# [4] = Kv1.3, end, read-out: Est. Kd, Kd end
# [5] = Kv1.3, peak, read-out: Est. Kd, Kd peak
# Chain of Kv1.3 (P22001 whole entry): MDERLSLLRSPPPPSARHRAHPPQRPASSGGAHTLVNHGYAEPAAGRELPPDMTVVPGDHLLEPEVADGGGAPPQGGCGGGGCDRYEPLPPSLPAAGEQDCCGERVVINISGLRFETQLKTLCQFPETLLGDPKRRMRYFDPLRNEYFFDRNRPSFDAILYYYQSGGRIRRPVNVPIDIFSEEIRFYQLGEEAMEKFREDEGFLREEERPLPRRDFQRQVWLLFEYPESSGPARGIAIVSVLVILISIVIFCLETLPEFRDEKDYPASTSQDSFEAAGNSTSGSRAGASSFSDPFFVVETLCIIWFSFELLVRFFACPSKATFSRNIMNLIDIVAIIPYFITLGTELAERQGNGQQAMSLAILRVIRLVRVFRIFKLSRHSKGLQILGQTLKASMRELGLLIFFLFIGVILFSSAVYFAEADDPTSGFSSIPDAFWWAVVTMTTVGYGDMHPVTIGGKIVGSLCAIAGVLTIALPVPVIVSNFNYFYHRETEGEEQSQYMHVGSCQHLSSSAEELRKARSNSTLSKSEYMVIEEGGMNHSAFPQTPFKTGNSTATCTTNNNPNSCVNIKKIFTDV
"pKd [1, 4]","pKd [1, 5]",melting point [°C],Compound,other results
6.52,6.10,–,COc1c(C(=O)CCc2ccccc2)c(O)c(OC)c2occc12 [Example 2],–
–,5.70,–,COc1c(O)c(C(=O)CCc2ccccc2)c(OC)c2c1OCC2 [Example 3],–
–,4.35,74 to 75,CCCOc1ccc(/C=C/C(=O)c2c(O)c(OC)c3occc3c2OC)cc1 [Example 4],Block phasic or not [1]: not phasic
–,4.52,122 to 124,COc1c(C(=O)/C=C/c2ccc(-c3ccccc3)cc2)c(O)c(OC)c2occc12 [Example 5],Block phasic or not [1]: not phasic
–,4.46,180 to 181,COc1c(C(=O)/C=C/c2ccc(NC(C)=O)cc2)c(O)c(OC)c2occc12 [Example 6],Block phasic or not [1]: not phasic
–,4.92,160 to 161,COc1c(C(=O)/C=C/c2ccccc2Cl)c(O)c(OC)c2occc12 [Example 7],Block phasic or not [1]: not phasic
–,4.82,–,COc1c(C(=O)/C=C/c2cccc(Cl)c2)c(O)c(OC)c2occc12 [Example 8],Block phasic or not [1]: not phasic
–,5.15,–,COc1c(C(=O)/C=C/c2ccc(Cl)cc2)c(O)c(OC)c2occc12 [Example 9],Block phasic or not [1]: not phasic
–,4.70,182 to 183,COc1c(C(=O)/C=C/c2cccc(C#N)c2)c(O)c(OC)c2occc12 [Example 10],Block phasic or not [1]: not phasic
–,4.92,196 to 198,COc1c(C(=O)/C=C/c2ccc(C#N)cc2)c(O)c(OC)c2occc12 [Example 11],Block phasic or not [1]: not phasic
–,–,–,CCN(CC)CCOc1ccc(/C=C/C(=O)c2c(O)c(OC)c3occc3c2OC)cc1 [Example 12],Effect on Kv1.3 ([1]; at 10 μM): 10 μM no effect Not tested against other channels
–,4.74,–,CCN(CC)c1ccc(/C=C/C(=O)c2c(O)c(OC)c3occc3c2OC)cc1 [Example 13],Block phasic or not [1]: not phasic
5.82,5.00,–,CCOc1ccc(/C=C/C(=O)c2c(O)c(OC)c3occc3c2OC)cc1 [Example 14],–
4.92,4.05,–,COc1c(C(=O)/C=C/c2ccccc2F)c(O)c(OC)c2occc12 [Example 15],–
5.40,4.46,121 to 123,COc1c(C(=O)/C=C/c2cccc(F)c2)c(O)c(OC)c2occc12 [Example 16],–
6.00,5.10,–,COc1c(C(=O)/C=C/c2ccc(F)cc2)c(O)c(OC)c2occc12 [Example 17],–
6.05,5.00,–,COc1c(C(=O)/C=C/c2ccc(O)cc2)c(O)c(OC)c2occc12 [Example 19],–
–,5.52,–,COc1c(C(=O)/C=C/c2ccc(C(C)C)cc2)c(O)c(OC)c2occc12 [Example 20],Block phasic or not [1]: not phasic
–,5.70,–,COc1c(C(=O)/C=C/c2ccccc2C)c(O)c(OC)c2occc12 [Example 21],Block phasic or not [1]: not phasic
6.52,5.82,97 to 98,COc1c(C(=O)/C=C/c2cccc(C)c2)c(O)c(OC)c2occc12 [Example 22],–
7.00,5.82,–,COc1c(C(=O)/C=C/c2ccc(C)cc2)c(O)c(OC)c2occc12 [Example 23],pEC50 [2]: 5.82
6.00,5.30,117 to 118,COc1ccccc1/C=C/C(=O)c1c(O)c(OC)c2occc2c1OC [Example 25],–
5.82,5.05,139 to 140,COc1c(C(=O)/C=C/c2ccc3c(c2)OCO3)c(O)c(OC)c2occc12 [Example 26],–
5.30,4.82,131 to 132,COc1c(C(=O)/C=C/c2ccccc2[N+](=O)[O-])c(O)c(OC)c2occc12 [Example 27],–
–,–,97 to 98,COc1c(C(=O)/C=C/c2cccc([N+](=O)[O-])c2)c(O)c(OC)c2occc12 [Example 28],"block ([1]; Kv1.3, at 5 μM): 5-10% block at 5 μM"
–,–,–,COc1c(C(=O)/C=C/c2ccc([N+](=O)[O-])cc2)c(O)c(OC)c2occc12 [Example 29],Behaviour of stocks in the Kv1.3 test ([1]; stock solutions): Stocks precipitate
5.46,5.30,112 to 114,COc1c(C(=O)/C=C/c2c(F)c(F)c(F)c(F)c2F)c(O)c(OC)c2occc12 [Example 30],–

"pKd [1, 4]","pKd [1, 5]",melting point [°C],Compound,other results
–,4.40,150 to 151,COc1c(C(=O)/C=C/c2ccccc2C(F)(F)F)c(O)c(OC)c2occc12 [Example 31],Block phasic or not [1]: not phasic
–,4.40,–,COc1c(C(=O)/C=C/c2cccc(C(F)(F)F)c2)c(O)c(OC)c2occc12 [Example 32],Block phasic or not [1]: not phasic
5.40,5.00,–,COc1c(C(=O)/C=C/c2ccc(C(F)(F)F)cc2)c(O)c(OC)c2occc12 [Example 33],–
–,–,–,COc1c(C(=O)/C=C/c2cccc(Oc3ccccc3)c2)c(O)c(OC)c2occc12 [Example 34],Effect on Kv1.3 ([1]; at 5 μM): no effect at 5 μM Not tested against other channels
–,–,107 to 108,COc1c(C(=O)/C=C/c2cccc(Oc3ccc(Cl)cc3)c2)c(O)c(OC)c2occc12 [Example 35],Effect on Kv1.3 ([1]; at 5 μM): no effect at 5 μM Not tested against other channels
–,–,–,COc1c(C(=O)/C=C/c2cccc(Oc3cccc(C(F)(F)F)c3)c2)c(O)c(OC)c2occc12 [Example 36],Effect on Kv1.3 ([1]; at 5 μM): no effect at 5 μM Not tested against other channels
–,–,–,COc1c(C(=O)/C=C/c2cccc(Oc3ccc(C)cc3)c2)c(O)c(OC)c2occc12 [Example 37],Effect on Kv1.3 ([1]; at 1 μM): no effect at 1 μM Not tested against other channels
–,–,–,COc1c(C(=O)/C=C/c2cccc3ccccc23)c(O)c(OC)c2occc12 [Example 38],Effect on Kv1.3 ([1]; at 5 μM): no effect at 5 μM Not tested against other channels
–,–,–,COc1c(C(=O)/C=C/c2ccc3ccccc3c2)c(O)c(OC)c2occc12 [Example 39],Effect on Kv1.3 ([1]; at 5 μM): no effect at 5 μM Not tested against other channels
–,–,–,COc1c(C(=O)/C=C/C=C/c2ccccc2)c(O)c(OC)c2occc12 [Example 40],Effect on Kv1.3 ([1]; at 1 μM): no effect at 1 μM Not tested against other channels
–,–,–,COc1c(C(=O)/C=C/c2ccccc2C(=O)O)c(O)c(OC)c2occc12 [Example 41],Effect on Kv1.3 ([1]; at 20 μM): no effect at 20 μM Not tested against other channels
5.30,4.85,–,COc1c(C(=O)/C=C/c2ccc(N(C)C)cc2)c(O)c(OC)c2occc12 [Example 42],–
5.10,4.80,–,COc1c(C(=O)/C=C/c2ccccc2O)c(O)c(OC)c2occc12 [Example 43],–
–,4.66,–,COc1c(C(=O)/C=C/C=C/c2ccc(N(C)C)cc2)c(O)c(OC)c2occc12 [Example 44],Block phasic or not [1]: not phasic
5.40,4.70,–,COc1c(C(=O)/C=C/c2ccco2)c(O)c(OC)c2occc12 [Example 45],–
–,–,120 to 121,COc1c(C(=O)/C=C/c2ccc(CO)o2)c(O)c(OC)c2occc12 [Example 46],Effect on Kv1.3 ([1]; at 20 μM): no effect at 20 μM Not tested against other channels
–,–,138 to 140,COc1c(C(=O)/C=C/c2c[nH]c3ccccc23)c(O)c(OC)c2occc12 [Example 47],Effect on Kv1.3 ([1]; at 5 μM): no effect at 5 μM Not tested against other channels
5.05,4.70,–,COc1c(C(=O)/C=C/c2cccnc2)c(O)c(OC)c2occc12 [Example 48],–
–,4.70,–,COc1c(C(=O)/C=C/c2ccncc2)c(O)c(OC)c2occc12 [Example 49],Block phasic or not [1]: not phasic
–,4.92,86 to 87,COc1c(C(=O)/C=C/c2cccc(C)n2)c(O)c(OC)c2occc12 [Example 50],Block phasic or not [1]: not phasic
5.05,4.52,–,COc1c(C(=O)/C=C/c2ccc[nH]2)c(O)c(OC)c2occc12 [Example 51],–
4.82,4.40,87 to 88,COc1c(C(=O)/C=C/c2cccn2C)c(O)c(OC)c2occc12 [Example 52],–
5.22,4.60,–,COc1c(C(=O)/C=C/c2sccc2C)c(O)c(OC)c2occc12 [Example 56],–
–,–,–,COc1c(C(=O)/C=C/c2ccc([N+](=O)[O-])s2)c(O)c(OC)c2occc12 [Example 57],Effect on Kv1.3 ([1]; at 10 μM): No effect at 10 μM
–,–,–,COc1c(C(=O)/C=C/c2ccc3ccccc3n2)c(O)c(OC)c2occc12 [Example 58],Effect on Kv1.3 ([1]; at 5 μM): No effect at 5 μM
6.70,5.00,–,COc1c(C(=O)/C=C/c2ccccc2)c(OCc2ccccc2)c(OC)c2occc12 [Example 60],–

Compound,"pKd [1, 4]","pKd [1, 5]",melting point [°C],other results
COc1c(C(=O)/C=C/c2cccs2)c(O)c(OC)c2occc12 [Example 53],6.52,5.76,–,Cytotoxicity (remark in Table 1) [3]: Cytotoxic Mp 129 Red needles
